For test [1], the target named is T1, c-MET kinase (Seq. ID no. 2) (Homo sapiens, UniProt P08581).
T1 construct: purchased Invitrogen PV3143
The test is described as follows: c-MET Kinase Assay (ADP production, pyruvate kinase/lactate dehydrogenase coupled). The note with it: read-out: cMET Enzyme Assay. The test is classed as biochemical.

Test [2] addresses KDR kinase (Seq ID No. 3) (Homo sapiens, UniProt P35968, DEL940-989/E990V). The test is described as follows: KDR Kinase Assay (assays K1, K2, K3). The test is classed as biochemical. As to conditions: assay variant K1, K2 or K3 not stated; read-out: KDR Enzyme Assay.
The target of a further test is T2, PDGFRα kinase (Homo sapiens, UniProt P16234).
T2 construct: purchased Invitrogen
T2 sequence (P16234 24-1089): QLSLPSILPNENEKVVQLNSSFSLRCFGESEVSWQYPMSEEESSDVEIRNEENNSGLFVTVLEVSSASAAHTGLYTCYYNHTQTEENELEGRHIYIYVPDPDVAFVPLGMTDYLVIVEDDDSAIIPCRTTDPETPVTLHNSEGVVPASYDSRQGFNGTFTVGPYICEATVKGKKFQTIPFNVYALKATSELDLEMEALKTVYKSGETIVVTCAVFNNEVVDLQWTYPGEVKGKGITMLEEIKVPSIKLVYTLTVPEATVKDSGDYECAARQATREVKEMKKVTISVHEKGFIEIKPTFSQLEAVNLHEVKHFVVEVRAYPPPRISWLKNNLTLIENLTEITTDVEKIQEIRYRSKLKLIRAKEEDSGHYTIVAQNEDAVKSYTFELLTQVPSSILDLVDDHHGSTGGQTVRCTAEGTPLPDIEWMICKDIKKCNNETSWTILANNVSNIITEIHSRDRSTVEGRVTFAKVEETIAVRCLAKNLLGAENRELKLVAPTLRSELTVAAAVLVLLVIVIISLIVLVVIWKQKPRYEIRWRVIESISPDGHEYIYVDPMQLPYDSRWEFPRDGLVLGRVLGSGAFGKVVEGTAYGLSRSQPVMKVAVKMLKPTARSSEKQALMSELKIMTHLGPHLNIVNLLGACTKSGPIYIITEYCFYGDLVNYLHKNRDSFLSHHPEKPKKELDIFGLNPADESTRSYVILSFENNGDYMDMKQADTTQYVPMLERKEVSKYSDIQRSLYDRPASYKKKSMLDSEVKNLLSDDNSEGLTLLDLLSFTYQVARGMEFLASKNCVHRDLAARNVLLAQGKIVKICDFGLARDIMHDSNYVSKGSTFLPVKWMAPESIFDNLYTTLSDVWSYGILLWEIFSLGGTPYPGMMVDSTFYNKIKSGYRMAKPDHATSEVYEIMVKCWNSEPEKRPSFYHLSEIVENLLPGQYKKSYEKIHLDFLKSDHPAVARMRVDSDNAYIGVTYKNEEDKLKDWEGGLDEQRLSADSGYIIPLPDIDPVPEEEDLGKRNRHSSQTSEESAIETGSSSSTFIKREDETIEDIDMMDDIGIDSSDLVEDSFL
The test is described as follows: PDGFRα Kinase Assay. The test is classed as biochemical. The note with it: read-out: PDGFRa Enzyme Assay.

The target in another test is T3, PDGFRβ (Homo sapiens, UniProt P09619).
T3 construct: purchased Invitrogen
T3 sequence (P09619 33-1106): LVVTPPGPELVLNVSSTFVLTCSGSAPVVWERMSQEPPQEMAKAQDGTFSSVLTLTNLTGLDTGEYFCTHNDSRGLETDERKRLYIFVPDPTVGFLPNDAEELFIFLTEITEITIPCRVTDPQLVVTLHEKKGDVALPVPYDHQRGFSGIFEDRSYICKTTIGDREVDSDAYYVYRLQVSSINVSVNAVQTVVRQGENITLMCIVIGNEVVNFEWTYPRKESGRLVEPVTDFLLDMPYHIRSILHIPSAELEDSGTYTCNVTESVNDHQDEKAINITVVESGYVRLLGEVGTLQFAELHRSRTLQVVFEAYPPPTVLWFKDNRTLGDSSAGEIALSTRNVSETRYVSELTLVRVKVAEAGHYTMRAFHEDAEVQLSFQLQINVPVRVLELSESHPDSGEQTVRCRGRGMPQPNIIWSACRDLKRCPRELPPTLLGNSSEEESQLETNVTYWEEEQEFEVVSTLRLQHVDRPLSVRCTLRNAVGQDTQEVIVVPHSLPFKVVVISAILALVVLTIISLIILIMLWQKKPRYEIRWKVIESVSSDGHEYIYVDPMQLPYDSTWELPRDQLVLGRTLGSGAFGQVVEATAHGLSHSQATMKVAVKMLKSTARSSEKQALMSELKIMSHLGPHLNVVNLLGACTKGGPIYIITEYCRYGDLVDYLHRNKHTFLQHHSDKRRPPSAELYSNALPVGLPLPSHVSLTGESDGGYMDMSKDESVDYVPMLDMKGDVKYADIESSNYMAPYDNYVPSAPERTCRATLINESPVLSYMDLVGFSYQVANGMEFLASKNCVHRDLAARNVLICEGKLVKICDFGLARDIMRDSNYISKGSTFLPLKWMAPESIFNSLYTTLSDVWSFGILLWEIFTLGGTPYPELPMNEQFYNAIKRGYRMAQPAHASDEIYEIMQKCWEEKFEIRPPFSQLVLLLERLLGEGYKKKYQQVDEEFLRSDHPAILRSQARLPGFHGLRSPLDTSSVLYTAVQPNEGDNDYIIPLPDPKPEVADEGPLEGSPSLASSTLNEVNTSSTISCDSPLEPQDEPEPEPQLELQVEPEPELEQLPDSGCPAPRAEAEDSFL
Kind of test: PDGFRβ Kinase Assay. The test is classed as biochemical. The note with it: read-out: PDGFRb Enzyme Assay.

The test system of the next test is EBC-1 cells. The test is described as follows: EBC-1 Cell Proliferation Assay (resazurin). The test is classed as cell-based. The note with it: Homo sapiens, 67 h + 5 h resazurin, read-out: EBC1 Cell Proliferation. On the procedure: EBC-1 cells (catalog #JCRB0820) were obtained from the Japan Health Science Research Resources Bank, Osaka, Japan. Briefly, cells were grown in DMEM supplemented with 10% characterized fetal bovine serum (Invitrogen, Carlsbad, Calif.) at 37 degrees Celsius, 5% CO2, 95% humidity. Cells were allowed to expand until reaching 70-95% confluency at which point they were subcultured or harvested for assay use.
EBC-1 Cell Proliferation Assay
A serial dilution of test compound was dispensed into a 96-well black clear bottom plate (Corning, Corning, N.Y.). For each cell line, five thousand cells were added per well in 200 μL complete growth medium. Plates were incubated for 67 hours at 37 degrees Celsius, 5% CO2, 95% humidity. […] Data was analyzed using Prism software (Graphpad, San Diego, Calif.) to calculate IC50 values.

Test [3] concerns the target T4, c-KIT kinase (Seq. ID no. 1) (Homo sapiens, UniProt P10721).
T4 construct: purchased ProQinase
The test is described as follows: c-KIT kinase Assay (ADP production, pyruvate kinase/lactate dehydrogenase coupled). The test is classed as biochemical. The note with it: read-out: cKIT Enzyme Assay.

The target of a further test is T5, Mo-7e pKIT (Homo sapiens, UniProt P10721).
T5 construct: endogenous in cells; host or cells: Mo-7e
T5 sequence (P10721 26-976): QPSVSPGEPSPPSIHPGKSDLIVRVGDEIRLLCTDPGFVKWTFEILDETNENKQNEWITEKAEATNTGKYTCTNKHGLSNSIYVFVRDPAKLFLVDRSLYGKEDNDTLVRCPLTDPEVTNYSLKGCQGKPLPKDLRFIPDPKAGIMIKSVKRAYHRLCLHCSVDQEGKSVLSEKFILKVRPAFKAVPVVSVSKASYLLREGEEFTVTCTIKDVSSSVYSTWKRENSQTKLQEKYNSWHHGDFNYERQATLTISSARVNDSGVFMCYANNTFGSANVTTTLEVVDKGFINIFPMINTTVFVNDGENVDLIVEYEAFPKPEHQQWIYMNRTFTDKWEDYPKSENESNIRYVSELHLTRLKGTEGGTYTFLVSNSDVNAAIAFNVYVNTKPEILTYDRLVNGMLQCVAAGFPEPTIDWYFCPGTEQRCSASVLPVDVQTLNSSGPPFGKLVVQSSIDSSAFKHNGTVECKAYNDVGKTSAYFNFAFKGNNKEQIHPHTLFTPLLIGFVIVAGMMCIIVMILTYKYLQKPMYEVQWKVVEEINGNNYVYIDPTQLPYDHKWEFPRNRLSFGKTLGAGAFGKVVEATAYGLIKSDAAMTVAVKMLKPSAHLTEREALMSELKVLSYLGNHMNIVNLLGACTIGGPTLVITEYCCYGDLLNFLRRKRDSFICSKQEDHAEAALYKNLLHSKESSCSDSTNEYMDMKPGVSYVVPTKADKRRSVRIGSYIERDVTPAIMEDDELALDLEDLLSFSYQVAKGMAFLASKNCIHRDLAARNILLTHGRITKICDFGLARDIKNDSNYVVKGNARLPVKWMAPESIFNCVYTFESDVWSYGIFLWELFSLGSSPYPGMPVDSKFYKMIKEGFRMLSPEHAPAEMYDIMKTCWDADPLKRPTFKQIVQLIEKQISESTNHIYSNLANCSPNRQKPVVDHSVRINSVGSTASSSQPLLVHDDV
Kind of test: Mo-7e pKIT cellular assay. The test is classed as cell-based. As to conditions: Mo-7e cells.

The target in a further test is T6, FMS kinase (Homo sapiens, UniProt P07333).
T6 construct: purchased Invitrogen or Millipore
The test is described as follows: FMS Kinase Assay. The test is classed as biochemical. As to conditions: read-out: FMS Enzyme Assay.

The next test deals with M-NFS-60 cells. The test is described as follows: M-NFS-60 Cell Proliferation Assay (resazurin). The test is classed as cell-based. The note with it: 67 h + 5 h resazurin. On the procedure:
Cells were allowed to expand until reaching saturation at which point they were subcultured or harvested for assay use.
M-NFS-60 Cell Proliferation Assay
A serial dilution of test compound was dispensed into a 384-well black clear bottom plate (Corning, Corning, N.Y.). Two thousand five hundred cells were added per well in 50 μL complete growth medium. Plates were incubated for 67 hours at 37 degrees Celsius, 5% CO2, and 95% humidity. […] Data was analyzed using Prism software (Graphpad, San Diego, Calif.) to calculate IC50 values.

Each structure is given as a SMILES string. Bounds are passed on as bounds.

T1 sequence (P08581 with tags, fused parts or gaps): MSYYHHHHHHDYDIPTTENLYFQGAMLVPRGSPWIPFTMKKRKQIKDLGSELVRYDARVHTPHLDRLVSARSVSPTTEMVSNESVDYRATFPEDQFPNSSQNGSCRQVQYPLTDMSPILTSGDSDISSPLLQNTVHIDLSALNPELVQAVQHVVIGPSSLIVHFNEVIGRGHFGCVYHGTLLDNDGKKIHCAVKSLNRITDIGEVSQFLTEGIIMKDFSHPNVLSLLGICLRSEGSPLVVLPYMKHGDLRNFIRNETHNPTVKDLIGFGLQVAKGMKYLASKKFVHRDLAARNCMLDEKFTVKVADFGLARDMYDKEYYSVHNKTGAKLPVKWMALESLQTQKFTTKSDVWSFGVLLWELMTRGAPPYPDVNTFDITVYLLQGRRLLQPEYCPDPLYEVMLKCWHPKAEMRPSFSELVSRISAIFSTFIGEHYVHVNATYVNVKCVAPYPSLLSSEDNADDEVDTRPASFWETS
T4 sequence (P10721 with tags, fused parts or gaps): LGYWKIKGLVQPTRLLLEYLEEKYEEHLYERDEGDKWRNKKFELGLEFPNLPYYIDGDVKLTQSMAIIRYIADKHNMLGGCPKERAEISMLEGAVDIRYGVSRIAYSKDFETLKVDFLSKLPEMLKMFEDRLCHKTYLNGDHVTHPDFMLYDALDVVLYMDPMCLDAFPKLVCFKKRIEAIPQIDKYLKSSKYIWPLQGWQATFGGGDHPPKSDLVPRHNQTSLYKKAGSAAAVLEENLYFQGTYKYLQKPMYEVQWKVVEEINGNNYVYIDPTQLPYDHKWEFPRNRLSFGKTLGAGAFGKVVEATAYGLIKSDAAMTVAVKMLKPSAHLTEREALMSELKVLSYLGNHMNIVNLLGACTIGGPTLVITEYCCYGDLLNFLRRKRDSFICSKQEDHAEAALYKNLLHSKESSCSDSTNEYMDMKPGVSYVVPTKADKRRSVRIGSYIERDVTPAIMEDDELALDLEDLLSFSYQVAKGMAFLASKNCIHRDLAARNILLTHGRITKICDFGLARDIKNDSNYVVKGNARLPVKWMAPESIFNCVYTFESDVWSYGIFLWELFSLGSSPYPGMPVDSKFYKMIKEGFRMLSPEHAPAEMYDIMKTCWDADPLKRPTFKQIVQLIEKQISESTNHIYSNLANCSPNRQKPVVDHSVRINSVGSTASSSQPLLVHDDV
Sequence of KDR kinase (Seq ID No. 3) (P35968 with tags, fused parts or gaps DEL940-989/E990V): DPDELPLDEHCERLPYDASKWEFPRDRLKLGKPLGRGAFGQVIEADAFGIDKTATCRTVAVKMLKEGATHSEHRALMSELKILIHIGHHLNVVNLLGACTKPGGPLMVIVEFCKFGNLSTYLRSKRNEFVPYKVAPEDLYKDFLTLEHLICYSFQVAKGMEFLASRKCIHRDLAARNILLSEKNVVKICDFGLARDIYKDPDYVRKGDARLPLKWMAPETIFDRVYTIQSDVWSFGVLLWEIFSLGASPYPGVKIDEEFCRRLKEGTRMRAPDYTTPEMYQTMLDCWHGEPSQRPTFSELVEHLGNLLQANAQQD

In the case of `Cn1cc(-c2cc(Oc3cc(F)c(NC(=O)C4(C(=O)Nc5ccccc5)CC4)cc3F)ccn2)cn1` [Example 45, N-(2,5-difluoro-4-(2-(1-methyl-1H-pyrazol-4-yl)pyridin-4-yloxy)phenyl)-N′-phenylcyclopropane-1,1-dicarboxamide], the IC50 was less than 0.2 µM in test [1]; less than 2 µM in test [2]; less than 10 µM at PDGFRα kinase; less than 10 µM on PDGFRβ; less than 0.2 µM in the test on EBC-1 cells; less than 0.2 µM in [3]. Also, the IC50 on Mo-7e pKIT was less than 0.2 µM.

Regarding `Cn1cc(-c2cc(Oc3ccc(NC(=O)C4(C(=O)Nc5ccc(F)cc5)CC4)nc3)ccn2)cn1` [Example 41, N-(4-fluorophenyl)-N′-(5-(2-(1-methyl-1,4-pyrazol-4-yl)pyridin-4-yloxy)pyridin-2-yl)cyclopropane-1,1-dicarboxamide], the IC50 in test [1] is less than 2 µM; in test [2], less than 2 µM; at PDGFRα kinase it was less than 2 µM; on PDGFRβ it was less than 10 µM; at FMS kinase, less than 0.2 µM; in test [3] it was less than 2 µM. In the test on M-NFS-60 cells, the IC50 is less than 10 µM.

In the case of `Cn1cc(-c2cc(Oc3cc(F)c(NC(=O)NC(=O)Cc4ccc(F)cc4)cc3F)ccn2)cn1` [Example 42, 1-(2,5-difluoro-4-(2-(1-methyl-1H-pyrazol-4-yl)pyridin-4-yloxy)phenyl)-3-(2-(4-fluorophenyl)acetyl)urea], the IC50 is less than 0.2 µM in [1]; less than 10 µM in test [2]; less than 0.2 µM at PDGFRα kinase; less than 10 µM at PDGFRβ; less than 0.2 µM in the test with EBC-1 cells; less than 0.2 µM in [3]. Further, the IC50 against Mo-7e pKIT was less than 2 µM.

The record behind these values is US8486951B2 (Deciphera Pharmaceuticals, LLC, priority 2008, dated 2013).
